Laboratory results from US20060069132A1, “Azolecarboxamide herbicides” (priority 2004, published 2006).
Like-named read-outs stand apart in the source and are kept apart here.

How the values were obtained:
[1] = system: kochia; assay: Test C pre-/postemergence herbicide test; assay type: in vivo, Kochia scoparia; settings: for pest or weed control at 125 g/ha: 125 g ai/ha
Summary of the method: (§1)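 Pre- and postemergence application, solvent/surfactant formulation; post at 1- to 4-leaf stage (2–18 cm). Greenhouse 12–14 d. Visual rating vs controls, 0 = no effect, 100 = complete control.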

[2] = system: velvetleaf; assay: Test A pre-/postemergence herbicide test; assay type: in vivo, Abutilon theophrasti; settings: Abutilon theophrasti, 240 h; for pest or weed control at 2000 g/ha: 2000 g ai/ha
Summary of the method: (§2)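 Visual injury rating on a 0–100 scale (0 no effect, 100 complete control) versus untreated controls, about ten days after treatment in greenhouse. Pre: directed soil spray onto seeded sandy loam. Post: spray to runoff on plants 2–10 cm tall at one- to two-leaf stage.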

[3] = system: corn; assay: Test C pre-/postemergence herbicide test; assay type: in vivo, Zea mays; settings: for Corn plant response rating (crop injury, 0 = no effect, 100 = complete kill) at 250 g/ha: 250 g ai/ha; for Corn plant response rating (crop injury, 0 = no effect, 100 = complete kill) at 125 g/ha: 125 g ai/ha
Summary of the method: as §1

[4] = system: pigweed; assay: Test C pre-/postemergence herbicide test; assay type: in vivo, Amaranthus retroflexus; settings: for pest or weed control at 125 g/ha: 125 g ai/ha
Summary of the method: as §1

[5] = system: velvetleaf; assay: Test C pre-/postemergence herbicide test; assay type: in vivo, Abutilon theophrasti; settings: Abutilon theophrasti, read-out: Plant response rating, Velvetleaf; for pest or weed control at 125 g/ha: 125 g ai/ha
Summary of the method: as §1

[6] = system: Surinam grass; assay: Test C pre-/postemergence herbicide test; assay type: in vivo, Urochloa decumbens; settings: for pest or weed control at 125 g/ha: 125 g ai/ha
Summary of the method: as §1

[7] = system: morningglory; assay: Test A pre-/postemergence herbicide test; assay type: in vivo, Ipomoea spp.; settings: Ipomoea, 240 h; for pest or weed control at 500 g/ha: 500 g ai/ha; for pest or weed control at 2000 g/ha: 2000 g ai/ha
Summary of the method: as §2

[8] = system: ducksalad; assay: Test C flooded paddy test; assay type: in vivo, Heteranthera limosa; settings: Heteranthera limosa
[9] = system: giant foxtail; assay: Test A pre-/postemergence herbicide test; assay type: in vivo, Setaria faberi; settings: Setaria faberi, 240 h; for pest or weed control at 500 g/ha: 500 g ai/ha; for pest or weed control at 2000 g/ha: 2000 g ai/ha
Summary of the method: as §2

[10] = system: lambsquarters; assay: Test C pre-/postemergence herbicide test; assay type: in vivo, Chenopodium album; settings: for pest or weed control at 125 g/ha: 125 g ai/ha
Summary of the method: as §1

[11] = system: rice; assay: Test C flooded paddy test; assay type: in vivo, Oryza sativa; settings: Oryza sativa
Summary of the method: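 Injury scored visually against controls on a 0 (no effect) to 100 (complete control) scale, 12 to 14 days after treatment in greenhouse. Flooded paddy plants treated at 2-leaf stage; postemergence plants at 1- to 4-leaf stage, 2 to 18 cm tall.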

[12] = post-emergence, Postemergence, 0 to 100 scale, 0 no effect, 100 complete control, read-out: Plant response rating, Morningglory
[13] = post-emergence, Postemergence, 0 to 100 scale, 0 no effect, 100 complete control, read-out: Plant response rating, Foxtail, Giant

CCOC(=O)c1cccc(NC(=O)c2cc(C(C)(C)C)nn2CC)c1 [Compound 80, ethyl 3-[[[3-(1,1-dimethylethyl)-1-ethyl-1H-pyrazol-5-yl]carbonyl]-amino]benzoate]
15%: pest or weed control at 500 g/ha ([7]; pre-emergence, Preemergence, visual rating, 0 to 100 scale (0 no effect, 100 complete control), read-out: Morningglory plant response rating)
80%: pest or weed control at 250 g/ha ([6]; Urochloa decumbens, post-emergence, 312 h, Postemergence, 250 g ai/ha, scale 0 to 100, 0 no effect, 100 complete control, read-out: Plant response rating, Surinam Grass) | pest or weed control at 125 g/ha ([6]; Urochloa decumbens, post-emergence, 312 h, postemergence, scale 0 to 100, read-out: Plant response rating, Surinam Grass) | pest or weed control at 62 g/ha ([6]; Urochloa decumbens, post-emergence, 312 h, postemergence, 62 g ai/ha, scale 0 to 100, read-out: Plant response rating, Surinam Grass) | pest or weed control at 500 g/ha [9, 13]
30%: pest or weed control at 31 g/ha ([4]; Amaranthus retroflexus, pre-emergence, 31 g ai/ha, preemergence, scale 0 to 100, read-out: Plant response rating, Pigweed) | pest or weed control at 2000 g/ha ([7]; pre-emergence, Preemergence, 0 to 100 scale, 0 no effect, 100 complete control, read-out: Morningglory plant response rating)
50%: pest or weed control at 2000 g/ha [7, 12]
40%: pest or weed control at 500 g/ha [7, 12] | pest or weed control at 500 g/ha ([8]; 500 g ai/ha, visual rating after 12 to 14 days, scale 0 to 100 (0 no effect, 100 complete control), read-out: Plant response rating, Ducksalad) | plant injury at 125 g/ha ([11]; 125 g ai/ha, scale of 0 to 100, 0 is no effect, 100 is complete control, read-out: Rice plant response rating) | plant injury at 250 g/ha ([11]; 250 g ai/ha, scale of 0 to 100, 0 is no effect, 100 is complete control, read-out: Rice plant response rating) | plant injury at 500 g/ha ([11]; 500 g ai/ha, visual rating after 12 to 14 days, scale 0 to 100 (0 no effect, 100 complete control), read-out: Plant response rating, Rice)
100%: pest or weed control at 250 g/ha ([1]; Bassia scoparia, post-emergence, Postemergence, 250 g ai/ha, scale 0 to 100, 0 no effect, 100 complete control, read-out: Plant response rating, Kochia) | pest or weed control at 125 g/ha ([1]; Bassia scoparia, post-emergence, postemergence, scale 0 to 100, read-out: Plant response rating, Kochia) | pest or weed control at 62 g/ha ([1]; Bassia scoparia, post-emergence, postemergence, 62 g ai/ha, scale 0 to 100, read-out: Plant response rating, Kochia) | pest or weed control at 250 g/ha ([4]; Amaranthus retroflexus, post-emergence, Postemergence, 250 g ai/ha, scale 0 to 100, 0 no effect, 100 complete control, read-out: Plant response rating, Pigweed) | pest or weed control at 125 g/ha ([4]; Amaranthus retroflexus, post-emergence, postemergence, scale 0 to 100, read-out: Plant response rating, Pigweed) | pest or weed control at 62 g/ha ([4]; Amaranthus retroflexus, post-emergence, postemergence, 62 g ai/ha, scale 0 to 100, read-out: Plant response rating, Pigweed) | pest or weed control at 125 g/ha ([4]; Amaranthus retroflexus, pre-emergence, scale 0 (no effect) to 100 (complete control), visual, 12 to 14 days, read-out: Plant response rating, Pigweed) | pest or weed control at 250 g/ha ([5]; post-emergence, Postemergence, 250 g ai/ha, scale 0 to 100, 0 no effect, 100 complete control) | pest or weed control at 125 g/ha ([5]; post-emergence, postemergence, scale 0 to 100) | pest or weed control at 62 g/ha ([5]; post-emergence, postemergence, 62 g ai/ha, scale 0 to 100) | pest or weed control at 125 g/ha ([5]; pre-emergence, scale 0 (no effect) to 100 (complete control), visual, 12 to 14 days) | pest or weed control at 250 g/ha ([10]; Chenopodium album, post-emergence, Postemergence, 250 g ai/ha, scale 0 to 100, 0 no effect, 100 complete control, read-out: Plant response rating, Lambsquarters) | pest or weed control at 125 g/ha ([10]; Chenopodium album, post-emergence, postemergence, scale 0 to 100, read-out: Plant response rating, Lambsquarters)
40: Plant response rating (0 = no effect, 100 = complete control), Pigweed ([4]; 62 g ai/ha, preemergence)
0: Plant response rating (0 = no effect, 100 = complete control), Corn ([3]; 62 g ai/ha, preemergence) | Plant response rating (0 = no effect, 100 = complete control), Surinam Grass ([6]; 62 g ai/ha, preemergence) | Plant response rating (0 = no effect, 100 = complete control), Lambsquarters ([10]; 62 g ai/ha, preemergence)
75%: pest or weed control at 2000 g/ha ([2]; post-emergence, Postemergence, 0 to 100 scale, 0 no effect, 100 complete control, read-out: Plant response rating, Velvetleaf)
90%: pest or weed control at 2000 g/ha [9, 13] | pest or weed control at 62 g/ha ([10]; Chenopodium album, post-emergence, postemergence, 62 g ai/ha, scale 0 to 100, read-out: Plant response rating, Lambsquarters)
70%: Corn plant response rating (crop injury, 0 = no effect, 100 = complete kill) at 250 g/ha ([3]; Zea mays, post-emergence, 312 h, Postemergence, scale 0 to 100, 0 no effect, 100 complete control) | Corn plant response rating (crop injury, 0 = no effect, 100 = complete kill) at 125 g/ha ([3]; Zea mays, post-emergence, 312 h, postemergence, scale 0 to 100) | Corn plant response rating (crop injury, 0 = no effect, 100 = complete kill) at 62 g/ha ([3]; Zea mays, post-emergence, 312 h, postemergence, 62 g ai/ha, scale 0 to 100) | pest or weed control at 2000 g/ha ([9]; pre-emergence, Preemergence, 0 to 100 scale, 0 no effect, 100 complete control, read-out: Foxtail, Giant plant response rating)
10: Plant response rating (0 = no effect, 100 = complete control), Kochia ([1]; 62 g ai/ha, preemergence)
20%: Corn plant response rating (crop injury, 0 = no effect, 100 = complete kill) at 250 g/ha ([3]; Zea mays, pre-emergence, 312 h, scale 0 to 100 (0 no effect, 100 complete control), visual, 12 to 14 days) | pest or weed control at 31 g/ha ([5]; pre-emergence, 31 g ai/ha, preemergence, scale 0 to 100) | pest or weed control at 62 g/ha ([8]; 62 g ai/ha, scale 0 to 100 (0 no effect, 100 complete control), read-out: Ducksalad plant response rating) | pest or weed control at 125 g/ha ([8]; 125 g ai/ha, scale of 0 to 100, 0 is no effect, 100 is complete control, read-out: Ducksalad plant response rating) | pest or weed control at 250 g/ha ([8]; 250 g ai/ha, scale of 0 to 100, 0 is no effect, 100 is complete control, read-out: Ducksalad plant response rating) | pest or weed control at 500 g/ha ([9]; pre-emergence, Preemergence, visual rating, 0 to 100 scale (0 no effect, 100 complete control), read-out: Foxtail, Giant plant response rating) | plant injury at 62 g/ha ([11]; 62 g ai/ha, scale 0 to 100 (0 no effect, 100 complete control), read-out: Rice plant response rating)
10%: pest or weed control at 31 g/ha ([1]; Bassia scoparia, pre-emergence, 31 g ai/ha, preemergence, scale 0 to 100, read-out: Plant response rating, Kochia) | pest or weed control at 125 g/ha ([1]; Bassia scoparia, pre-emergence, scale 0 (no effect) to 100 (complete control), visual, 12 to 14 days, read-out: Plant response rating, Kochia) | pest or weed control at 500 g/ha ([2]; pre-emergence, Preemergence, 500 g ai/ha, visual rating, 0 to 100 scale (0 no effect, 100 complete control), read-out: Velvetleaf plant response rating) | pest or weed control at 2000 g/ha ([2]; pre-emergence, Preemergence, visual rating, 0 to 100 scale (0 no effect, 100 complete control), read-out: Velvetleaf plant response rating) | Corn plant response rating (crop injury, 0 = no effect, 100 = complete kill) at 125 g/ha ([3]; Zea mays, pre-emergence, 312 h, scale 0 (no effect) to 100 (complete control), visual, 12 to 14 days) | pest or weed control at 125 g/ha ([6]; Urochloa decumbens, pre-emergence, 312 h, scale 0 (no effect) to 100 (complete control), visual, 12 to 14 days, read-out: Plant response rating, Surinam Grass) | pest or weed control at 125 g/ha ([10]; Chenopodium album, pre-emergence, scale 0 (no effect) to 100 (complete control), visual, 12 to 14 days, read-out: Plant response rating, Lambsquarters)
0%: Corn plant response rating (crop injury, 0 = no effect, 100 = complete kill) at 31 g/ha ([3]; Zea mays, pre-emergence, 312 h, 31 g ai/ha, preemergence, scale 0 to 100) | pest or weed control at 31 g/ha ([6]; Urochloa decumbens, pre-emergence, 312 h, 31 g ai/ha, preemergence, scale 0 to 100, read-out: Plant response rating, Surinam Grass) | pest or weed control at 31 g/ha ([10]; Chenopodium album, pre-emergence, 31 g ai/ha, preemergence, scale 0 to 100, read-out: Plant response rating, Lambsquarters)
